From ChEMBL document CHEMBL5463728, “Data for DCP probe BAY-6096” (2023)

Experiments:
[1] = target: T1, 5-hydroxytryptamine receptor 2C (Homo sapiens) (UniProt P28335); details: Compound concentration 10.0 uM
T1 sequence (whole entry): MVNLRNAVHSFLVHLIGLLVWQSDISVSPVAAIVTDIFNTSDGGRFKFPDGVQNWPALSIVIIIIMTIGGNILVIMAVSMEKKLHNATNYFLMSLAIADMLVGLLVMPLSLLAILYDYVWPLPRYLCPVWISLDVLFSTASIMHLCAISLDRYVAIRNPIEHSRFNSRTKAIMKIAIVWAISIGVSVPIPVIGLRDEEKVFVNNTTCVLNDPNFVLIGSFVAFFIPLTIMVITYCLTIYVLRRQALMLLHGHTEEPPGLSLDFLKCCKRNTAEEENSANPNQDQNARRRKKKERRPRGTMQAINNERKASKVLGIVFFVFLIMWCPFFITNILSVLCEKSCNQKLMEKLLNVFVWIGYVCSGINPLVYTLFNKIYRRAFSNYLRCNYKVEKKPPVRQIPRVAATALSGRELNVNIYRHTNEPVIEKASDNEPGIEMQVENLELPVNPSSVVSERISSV

[2] = target: Mu-type opioid receptor (Homo sapiens) (UniProt P35372); details: Compound concentration 10.0 uM
Mu-type opioid receptor (Homo sapiens), sequence (P35372 whole entry): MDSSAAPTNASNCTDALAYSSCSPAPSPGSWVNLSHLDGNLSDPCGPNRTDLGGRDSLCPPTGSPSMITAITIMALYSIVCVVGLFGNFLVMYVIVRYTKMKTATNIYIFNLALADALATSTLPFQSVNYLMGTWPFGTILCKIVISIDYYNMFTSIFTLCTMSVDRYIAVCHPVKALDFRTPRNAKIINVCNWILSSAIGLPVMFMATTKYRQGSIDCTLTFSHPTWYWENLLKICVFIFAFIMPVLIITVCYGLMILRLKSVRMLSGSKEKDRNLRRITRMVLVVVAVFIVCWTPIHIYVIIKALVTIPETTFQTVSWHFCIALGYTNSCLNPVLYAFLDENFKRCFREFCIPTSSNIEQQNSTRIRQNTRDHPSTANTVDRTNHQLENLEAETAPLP

[3] = target: Muscarinic acetylcholine receptor M3 (Homo sapiens) (UniProt P20309); details: Compound concentration 10.0 uM
Muscarinic acetylcholine receptor M3 (Homo sapiens), sequence (P20309 whole entry, looked up): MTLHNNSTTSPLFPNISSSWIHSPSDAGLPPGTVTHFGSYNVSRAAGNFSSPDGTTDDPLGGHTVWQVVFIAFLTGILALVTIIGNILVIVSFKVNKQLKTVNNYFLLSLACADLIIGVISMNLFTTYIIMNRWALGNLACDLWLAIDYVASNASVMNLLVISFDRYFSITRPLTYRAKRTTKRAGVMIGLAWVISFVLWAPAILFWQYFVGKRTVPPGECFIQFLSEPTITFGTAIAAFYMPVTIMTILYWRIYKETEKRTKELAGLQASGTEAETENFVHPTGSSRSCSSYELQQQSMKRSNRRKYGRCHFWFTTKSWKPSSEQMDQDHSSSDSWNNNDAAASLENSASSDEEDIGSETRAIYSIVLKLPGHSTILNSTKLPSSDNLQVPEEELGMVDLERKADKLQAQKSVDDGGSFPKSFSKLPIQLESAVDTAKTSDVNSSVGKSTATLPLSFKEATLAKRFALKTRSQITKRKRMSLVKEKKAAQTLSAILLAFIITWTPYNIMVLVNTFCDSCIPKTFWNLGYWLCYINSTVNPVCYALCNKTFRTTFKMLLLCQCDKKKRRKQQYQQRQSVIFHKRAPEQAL

[4] = target: D(4) dopamine receptor (Homo sapiens) (UniProt P21917); details: Compound concentration 10.0 uM
D(4) dopamine receptor (Homo sapiens), sequence (P21917 whole entry): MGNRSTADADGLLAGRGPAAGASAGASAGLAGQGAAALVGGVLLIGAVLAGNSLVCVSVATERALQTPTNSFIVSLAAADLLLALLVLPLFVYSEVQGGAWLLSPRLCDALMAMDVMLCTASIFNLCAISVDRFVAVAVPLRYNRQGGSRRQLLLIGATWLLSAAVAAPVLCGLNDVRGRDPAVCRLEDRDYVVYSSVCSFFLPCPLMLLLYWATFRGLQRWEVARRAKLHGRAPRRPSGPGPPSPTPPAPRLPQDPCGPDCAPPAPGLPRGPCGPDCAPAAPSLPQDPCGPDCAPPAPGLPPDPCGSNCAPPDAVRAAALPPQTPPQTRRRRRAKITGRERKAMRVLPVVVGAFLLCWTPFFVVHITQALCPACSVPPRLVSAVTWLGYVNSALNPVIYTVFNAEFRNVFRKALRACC

[5] = target: T2, 5-hydroxytryptamine receptor 1A (Homo sapiens) (UniProt P08908); details: Compound concentration 10.0 uM
T2 sequence (whole entry): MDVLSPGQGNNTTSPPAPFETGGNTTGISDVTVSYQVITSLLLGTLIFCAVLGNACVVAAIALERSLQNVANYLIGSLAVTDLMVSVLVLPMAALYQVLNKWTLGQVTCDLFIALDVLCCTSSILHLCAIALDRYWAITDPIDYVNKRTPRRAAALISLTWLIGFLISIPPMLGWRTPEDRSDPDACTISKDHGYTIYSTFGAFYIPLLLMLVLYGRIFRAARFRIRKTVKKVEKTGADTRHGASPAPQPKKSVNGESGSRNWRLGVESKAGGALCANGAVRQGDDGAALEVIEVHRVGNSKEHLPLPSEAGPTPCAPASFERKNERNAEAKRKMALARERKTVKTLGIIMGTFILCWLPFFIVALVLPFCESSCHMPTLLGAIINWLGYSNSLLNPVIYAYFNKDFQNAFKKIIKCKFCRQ

D(2) dopamine receptor [6] = target: T3, D(2) dopamine receptor (Homo sapiens, UniProt P14416); details: Compound concentration 10.0 uM
T3 sequence (P14416 whole entry): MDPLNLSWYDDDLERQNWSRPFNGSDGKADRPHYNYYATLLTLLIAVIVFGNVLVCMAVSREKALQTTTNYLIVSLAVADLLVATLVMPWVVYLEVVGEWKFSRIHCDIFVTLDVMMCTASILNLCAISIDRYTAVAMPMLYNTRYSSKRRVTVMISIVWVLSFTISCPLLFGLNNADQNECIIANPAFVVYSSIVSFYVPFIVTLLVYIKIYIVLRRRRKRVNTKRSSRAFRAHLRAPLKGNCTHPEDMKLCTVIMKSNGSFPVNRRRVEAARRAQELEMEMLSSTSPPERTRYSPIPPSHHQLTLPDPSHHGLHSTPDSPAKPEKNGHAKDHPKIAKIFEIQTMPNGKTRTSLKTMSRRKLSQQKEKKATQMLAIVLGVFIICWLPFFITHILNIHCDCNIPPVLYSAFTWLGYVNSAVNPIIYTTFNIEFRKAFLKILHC

[7] = target: Sodium-dependent noradrenaline transporter (Homo sapiens) (UniProt P23975); details: Compound concentration 10.0 uM
[8] = target: Histamine H2 receptor (Homo sapiens) (UniProt P25021); details: Compound concentration 10.0 uM
Histamine H2 receptor (Homo sapiens), sequence (P25021 whole entry): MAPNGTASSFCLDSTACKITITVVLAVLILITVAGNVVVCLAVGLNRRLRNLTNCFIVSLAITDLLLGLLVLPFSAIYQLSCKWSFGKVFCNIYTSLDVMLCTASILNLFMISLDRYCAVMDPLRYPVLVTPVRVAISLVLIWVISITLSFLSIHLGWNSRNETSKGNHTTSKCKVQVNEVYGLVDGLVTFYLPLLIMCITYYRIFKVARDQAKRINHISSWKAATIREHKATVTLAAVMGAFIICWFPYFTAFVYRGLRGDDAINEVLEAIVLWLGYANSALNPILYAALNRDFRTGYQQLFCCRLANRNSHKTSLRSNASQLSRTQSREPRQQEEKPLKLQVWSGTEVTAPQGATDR

[9] = target: GABA-A receptor; anion channel (Rattus norvegicus) (UniProt O09028+P15431+P18506+P18508+P19969+P20236+P23574+P23576+P28471+P28473+P30191+P62813+P63079+P63138+Q91ZM7+Q9ES14); details: Compound concentration 10.0 uM
[10] = target: 5-hydroxytryptamine receptor 3A (Homo sapiens) (UniProt P46098); details: Compound concentration 10.0 uM
5-hydroxytryptamine receptor 3A (Homo sapiens), sequence (P46098 whole entry): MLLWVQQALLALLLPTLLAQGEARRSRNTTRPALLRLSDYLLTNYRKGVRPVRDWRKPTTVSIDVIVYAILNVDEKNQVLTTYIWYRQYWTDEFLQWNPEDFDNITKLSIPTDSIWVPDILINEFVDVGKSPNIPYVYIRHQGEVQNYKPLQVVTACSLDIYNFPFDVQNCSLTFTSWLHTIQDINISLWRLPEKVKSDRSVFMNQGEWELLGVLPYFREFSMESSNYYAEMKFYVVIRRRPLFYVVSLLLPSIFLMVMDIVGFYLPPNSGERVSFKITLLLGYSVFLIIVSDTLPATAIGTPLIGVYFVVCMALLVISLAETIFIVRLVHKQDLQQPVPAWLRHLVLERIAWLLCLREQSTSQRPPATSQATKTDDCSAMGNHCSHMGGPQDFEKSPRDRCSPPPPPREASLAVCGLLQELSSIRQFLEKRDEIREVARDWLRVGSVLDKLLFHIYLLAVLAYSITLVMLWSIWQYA

D(2) dopamine receptor [11] = target: T3, D(2) dopamine receptor; assay: Bayer Inhouse […] panel (DRD2)
[12] = target: Alpha-1B adrenergic receptor (Homo sapiens) (UniProt P35368); details: Compound concentration 10.0 uM
[13] = target: Delta-type opioid receptor (Homo sapiens) (UniProt P41143); details: Compound concentration 10.0 uM
[14] = target: Kappa-type opioid receptor (Homo sapiens) (UniProt P41145); details: Compound concentration 10.0 uM
Kappa-type opioid receptor (Homo sapiens), sequence (P41145 whole entry): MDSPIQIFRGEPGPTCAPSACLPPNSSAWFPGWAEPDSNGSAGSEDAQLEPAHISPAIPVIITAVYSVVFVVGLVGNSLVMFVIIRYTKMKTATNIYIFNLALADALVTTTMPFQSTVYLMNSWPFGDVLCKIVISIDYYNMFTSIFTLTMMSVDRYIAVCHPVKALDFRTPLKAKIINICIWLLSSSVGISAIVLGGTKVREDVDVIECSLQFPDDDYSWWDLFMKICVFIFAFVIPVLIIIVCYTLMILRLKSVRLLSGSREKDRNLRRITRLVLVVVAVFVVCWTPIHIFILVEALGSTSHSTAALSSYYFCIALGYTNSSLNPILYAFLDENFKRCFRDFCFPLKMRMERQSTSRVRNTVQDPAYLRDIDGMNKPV

[15] = target: 5-hydroxytryptamine receptor 2B (Homo sapiens) (UniProt P41595); details: Compound concentration 10.0 uM
5-hydroxytryptamine receptor 2B (Homo sapiens), sequence (P41595 whole entry): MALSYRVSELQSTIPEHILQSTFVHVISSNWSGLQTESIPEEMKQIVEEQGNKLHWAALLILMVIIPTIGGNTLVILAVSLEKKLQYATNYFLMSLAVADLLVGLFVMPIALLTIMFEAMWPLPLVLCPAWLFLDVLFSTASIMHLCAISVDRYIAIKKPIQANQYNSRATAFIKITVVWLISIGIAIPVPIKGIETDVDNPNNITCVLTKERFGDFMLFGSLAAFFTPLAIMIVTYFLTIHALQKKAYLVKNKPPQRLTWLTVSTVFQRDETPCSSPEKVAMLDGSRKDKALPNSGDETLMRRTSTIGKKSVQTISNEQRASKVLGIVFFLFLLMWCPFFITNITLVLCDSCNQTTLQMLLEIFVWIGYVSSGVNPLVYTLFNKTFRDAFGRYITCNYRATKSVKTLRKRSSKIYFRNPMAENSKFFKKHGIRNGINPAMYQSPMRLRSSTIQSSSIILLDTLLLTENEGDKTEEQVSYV

[16] = target: T4, Muscarinic acetylcholine receptor M4 (Homo sapiens) (UniProt P08173); details: Compound concentration 10.0 uM
T4 sequence (whole entry): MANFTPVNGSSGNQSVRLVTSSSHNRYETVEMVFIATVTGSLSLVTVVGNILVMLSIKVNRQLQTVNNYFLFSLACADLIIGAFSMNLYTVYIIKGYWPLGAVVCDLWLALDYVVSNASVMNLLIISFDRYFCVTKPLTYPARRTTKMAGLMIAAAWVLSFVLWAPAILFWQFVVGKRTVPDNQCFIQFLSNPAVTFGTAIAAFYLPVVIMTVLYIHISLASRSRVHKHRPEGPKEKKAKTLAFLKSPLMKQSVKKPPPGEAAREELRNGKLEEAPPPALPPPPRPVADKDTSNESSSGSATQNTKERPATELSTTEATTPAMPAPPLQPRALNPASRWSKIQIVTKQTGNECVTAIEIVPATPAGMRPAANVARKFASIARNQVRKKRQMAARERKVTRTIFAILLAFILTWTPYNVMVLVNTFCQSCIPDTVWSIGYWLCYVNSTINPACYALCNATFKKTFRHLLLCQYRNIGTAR

[17] = target: D(3) dopamine receptor (Homo sapiens) (UniProt P35462); details: Compound concentration 10.0 uM
D(3) dopamine receptor (Homo sapiens), sequence (P35462 whole entry): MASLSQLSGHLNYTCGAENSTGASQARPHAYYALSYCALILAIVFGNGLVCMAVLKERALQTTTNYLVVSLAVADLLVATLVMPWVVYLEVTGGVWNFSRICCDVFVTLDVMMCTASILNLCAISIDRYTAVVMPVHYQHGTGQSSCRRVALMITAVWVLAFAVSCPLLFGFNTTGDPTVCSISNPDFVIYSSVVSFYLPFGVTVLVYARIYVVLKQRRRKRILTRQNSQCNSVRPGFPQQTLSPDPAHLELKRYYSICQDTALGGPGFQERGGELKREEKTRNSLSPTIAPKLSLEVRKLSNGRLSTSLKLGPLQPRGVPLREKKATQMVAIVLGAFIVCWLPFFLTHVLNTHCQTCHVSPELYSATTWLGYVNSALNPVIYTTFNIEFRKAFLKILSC

[18] = target: Alpha-2C adrenergic receptor (Homo sapiens) (UniProt P18825); details: Compound concentration 10.0 uM
Alpha-2C adrenergic receptor (Homo sapiens), sequence (P18825 whole entry): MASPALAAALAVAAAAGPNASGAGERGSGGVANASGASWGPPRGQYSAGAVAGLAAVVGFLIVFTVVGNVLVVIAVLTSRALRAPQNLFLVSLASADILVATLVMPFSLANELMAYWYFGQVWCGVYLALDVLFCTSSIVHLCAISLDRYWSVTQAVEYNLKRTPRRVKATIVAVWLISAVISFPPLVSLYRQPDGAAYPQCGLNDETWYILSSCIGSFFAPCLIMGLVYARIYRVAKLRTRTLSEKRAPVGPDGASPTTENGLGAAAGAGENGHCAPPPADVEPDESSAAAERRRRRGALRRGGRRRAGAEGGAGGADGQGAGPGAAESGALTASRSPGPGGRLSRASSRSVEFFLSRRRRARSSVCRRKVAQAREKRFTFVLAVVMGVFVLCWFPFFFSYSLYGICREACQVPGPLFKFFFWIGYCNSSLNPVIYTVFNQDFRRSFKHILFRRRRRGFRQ

[19] = target: 5-hydroxytryptamine receptor 1B (Homo sapiens) (UniProt P28222); details: Compound concentration 10.0 uM
[20] = target: Alpha-2A adrenergic receptor (Homo sapiens, UniProt P08913); assay: Adrenoceptor reporter cell assay (ADRA2A); type: functional
[21] = target: Muscarinic acetylcholine receptor M5 (Homo sapiens) (UniProt P08912); details: Compound concentration 10.0 uM
Muscarinic acetylcholine receptor M5 (Homo sapiens), sequence (P08912 whole entry): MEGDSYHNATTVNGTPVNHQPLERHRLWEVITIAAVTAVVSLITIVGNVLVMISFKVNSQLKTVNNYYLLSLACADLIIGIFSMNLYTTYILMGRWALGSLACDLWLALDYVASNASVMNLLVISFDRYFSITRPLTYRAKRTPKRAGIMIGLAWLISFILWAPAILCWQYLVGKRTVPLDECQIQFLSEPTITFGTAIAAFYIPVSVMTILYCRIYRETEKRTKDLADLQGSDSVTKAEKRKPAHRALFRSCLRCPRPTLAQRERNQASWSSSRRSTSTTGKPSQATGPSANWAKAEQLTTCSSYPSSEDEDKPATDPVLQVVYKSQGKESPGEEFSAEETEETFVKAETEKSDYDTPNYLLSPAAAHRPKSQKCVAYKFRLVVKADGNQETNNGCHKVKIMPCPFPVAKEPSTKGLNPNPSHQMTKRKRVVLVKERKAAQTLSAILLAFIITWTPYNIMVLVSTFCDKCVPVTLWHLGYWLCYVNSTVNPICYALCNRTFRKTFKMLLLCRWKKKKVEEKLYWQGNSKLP

Row | Compound | inhibition [1] | inhibition [2] | inhibition [3] | inhibition [4] | inhibition [5] | inhibition (D(2) dopamine receptor [6]) | inhibition [7] | inhibition [8] | inhibition [9] | inhibition [10] | IC50 (D(2) dopamine receptor [11]) | inhibition [12] | inhibition [13] | inhibition [14] | inhibition [15] | inhibition [16] | inhibition [17] | inhibition [18] | inhibition [19] | IC50 [20] | further results
1 | CNc1cc[n+](CCNC(=O)c2ccn3c(-c4c(C)noc4C)cnc3c2)cc1 | -3.48% | 6.53% | 0.75% | 11.3% | 33.4% | 10.6% | -2.68% | 5.19% | 20.9% | 6.7% | 1.4 µM (not active) | 0.79% | 20.1% | 32.3% | 4.13% | -6.15% | 8.88% | 41.3% | 9.81% | 10 µM (not active) | inhibition [21]: -5%
2 | Cc1noc(C)c1-c1cnc2cc(C(=O)NCCC[n+]3ccc(N(C)C)cc3)ccn12 | -5.48% | 18.9% | 18% | 3.03% | 81.7% | -1.11% | 1.75% | 9.52% | -7.67% | 4.99% | > 20 µM (not active) | 1.7% | -5.36% | 28.2% | 10.3% | 12.5% | -6.53% | 18.3% | -0.88% | > 10 µM (not active) | inhibition [21]: -1.12%
